Data set [1] deals with hepatitis B virus (HBV). The data set can be described thus: Reduction of viral product accumulation (HBV DNA qPCR, HBsAg or HBeAg ELISA) in 2.2.15 cells. As to conditions: 120 h, day 5 post treatment, 50% reduction of viral product accumulation in cell lysates or supernatants relative to no drug controls, readout not specified. The class given is cell-based. Here is the method: 2.2.15 cells are passaged upon attaining confluency in DMEM/F12 media in the presence of 10% FBS, Penn/Strep, and 250 ug/mL G418. Novel compounds are 5 fold serially diluted in DMSO and added to 96 well plates containing 35,000 cells/well at a 1:200 dilution so that the final concentration of DMSO is 0.5%. On day 5, post treatment cell lysates and supernatants are harvested for analysis.
Cells are lysed using Agilent Sidestep Lysis buffer, diluted 1:100 and quantified via quantitative real time PCR. Commercially available ELISA kits are used to quantitate the viral proteins HBsAg (Alpco) or HBeAg (US Biological) by following the manufacturer's recommended protocol after diluting samples to match the linear range of their respective assays. Irrespective of readout, compound concentrations that reduce viral product accumulation in the cell lysates or supernatants by 50% relative to no drug controls (EC50) are reported; EC50 ranges are as follows: A<0.1 μM; B 0.1-1 μM; C>1 μM.
A general note: Quantitative PCR measures a nucleic acid by following its amplification.

The nature of data set [2]: Compound induced cellular toxicity in HepG2 cells (ATPlite 1 Step). The class given is cell-based. Conditions: human, three days exposure, 50% reduction of total ATP levels relative to no drug controls. As to the method: At day 3, post seeding cells are treated with ATPlite 1 Step according to the manufacturer's instructions.

Molecules are shown by their SMILES.

Broadly, the EC50 is the concentration giving half of the maximal effect. The low end stands for greater potency, the high end for weaker potency. One may read the CC50 as the concentration that lowers cell viability or growth by half. Read a low CC50 as harm at low concentration.

Turning to `CC(C)(C)[C@@H]1Oc2c(cc(Br)c3occc23)-c2c1cc(C(=O)O)c(=O)n2C1CC1` [Example 1, (S)-11-bromo-5-(tert-butyl)-9-cyclopropyl-8-oxo-8,9-dihydro-5H-furo[2′,3′:7,8]chromeno[4,3-b]pyridine-7-carboxylic acid], the EC50 in data set [1] is < 0.1 µM. In data set [2], the half-maximal cytotoxic concentration (CC50) at 3 days is > 25 µM.

Consider `CC(C)(C)[C@@H]1Oc2c(cc(Cl)c3occc23)-c2c1cc(C(=O)O)c(=O)n2C1CC1` [Example 2, (S)-5-(tert-butyl)-11-chloro-9-cyclopropyl-8-oxo-8,9-dihydro-5H-furo[2′,3′:7,8]chromeno[4,3-b]pyridine-7-carboxylic acid], for which the EC50 in data set [1] was < 0.1 µM. For the same compound, the CC50 at 3 days in data set [2] was > 25 µM.

For the compound `CC(C)(C)[C@@H]1Oc2c(cc(Cl)c3ccoc23)-c2c1cc(C(=O)O)c(=O)n2C1CC1` [Example 3, (S)-5-(tert-butyl)-11-chloro-9-cyclopropyl-8-oxo-8,9-dihydro-5H-furo[3′,2′:7,8]chromeno[4,3-b]pyridine-7-carboxylic acid], the EC50 in data set [1] was < 0.1 µM. For the same compound, the CC50 at 3 days in data set [2] was > 25 µM.

Take `CC(C)(C)[C@@H]1Oc2c(ccc3occc23)-c2c1cc(C(=O)O)c(=O)n2C1CC1` [Example 4, (S)-5-(tert-butyl)-9-cyclopropyl-8-oxo-8,9-dihydro-5H-furo[2′,3′:7,8]chromeno[4,3-b]pyridine-7-carboxylic acid]: the EC50 in data set [1] was < 0.1 µM. Besides, the CC50 at 3 days in data set [2] was > 25 µM.

For the compound `CC(C)(C)[C@@H]1Oc2c(cc(O)c3occc23)-c2c1cc(C(=O)O)c(=O)n2C1CC1` [Example 5, (S)-5-(tert-butyl)-9-cyclopropyl-11-hydroxy-8-oxo-8,9-dihydro-5H-furo[2′,3′:7,8]chromeno[4,3-b]pyridine-7-carboxylic acid], the EC50 in data set [1] is < 0.1 µM. Further, the half-maximal cytotoxic concentration (CC50) at 3 days in data set [2] was > 25 µM.

As to `COc1cc2c(c3ccoc13)O[C@@H](C(C)(C)C)c1cc(C(=O)O)c(=O)n(C3CC3)c1-2` [Example 6, (S)-5-(tert-butyl)-9-cyclopropyl-11-methoxy-8-oxo-8,9-dihydro-5H-furo[2′,3′:7,8]chromeno[4,3-b]pyridine-7-carboxylic acid], the 50% effective concentration (EC50) in data set [1] was < 0.1 µM. Besides, the CC50 at 3 days in data set [2] is > 25 µM.

The record behind these values is patent publication US11236108B2, “Functionalized heterocycles as antiviral agents” (ENANTA PHARMACEUTICALS, INC., priority 2019, dated 2022).
